The subject of one data set is RS4;11 cells. The data set is described as follows: RS4;11 cell viability, CCK-8 assay. To be noted: Homo sapiens, RS4-11, 96 h, CCK-8, 4 days, read-out: RS4, 11 IC50 (Bcl-2 dependent). Type of data set: cell-based. As for the experimental part:
RS4;11 cells were obtained from American Type Culture Collection (ATCC). They were used within three months of thawing fresh vials. Cells were maintained in the recommended culture medium with 10% FBS at 37° C. and an atmosphere of 5% CO2.
The effect of representative Compounds of the Disclosure on cell viability was determined using Cell Counting Kit-8 (CCK-8) assay (Dojindo, Rockville, Md.) according to the manufacturer's instructions. 200 μL of a RS4;11 cell suspension (10000 cells/well) in culture medium were seeded into 96-well plates and cultured overnight. Each tested compound was serially diluted in culture medium, and 20 μL of the compound dilution was added to the corresponding well of the cell plate. After the addition of the tested compound, the cells were incubated at 37° C. in an atmosphere of 5% CO2 for 4 days. At the end of 4 days, 10 μL of CCK-8 solution was added to each well of the plate and incubated for 1-4 hours. The plates were read at 450 nm on the microplate spectrophotometer (Epoch2, BioTek). The readings were normalized to the vehicle cells, and the IC50 was calculated by nonlinear regression analysis using GraphPad Prism 5 software.
In general terms: Formazan colour is commonly taken as a measure of viable cells.

The test system of the next data set is Molm13 cells. The data set is described as follows: Molm13 cell viability, CCK-8 assay. It counts as cell-based. To be noted: Homo sapiens, MOLM-13, 96 h, CCK-8, 4 days, read-out: Molm13 IC50 (Bcl-2 dependent).
The target of a further data set is Bcl-2 (Homo sapiens (Human), UniProt P10415).
Bcl-2, sequence (P10415 whole entry): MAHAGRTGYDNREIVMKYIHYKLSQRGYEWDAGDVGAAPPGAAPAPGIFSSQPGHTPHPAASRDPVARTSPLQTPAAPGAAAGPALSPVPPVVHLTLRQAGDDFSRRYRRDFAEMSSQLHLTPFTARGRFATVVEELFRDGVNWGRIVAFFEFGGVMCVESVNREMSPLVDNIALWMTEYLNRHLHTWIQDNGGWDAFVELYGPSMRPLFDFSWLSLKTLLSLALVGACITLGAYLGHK
The target of another data set is Bcl-xL (Homo sapiens (Human), UniProt Q07817). Nature of the data set: Fluorescence polarization competitive binding assay, Bcl-xL. To be noted: FP competition, 10 nM Bcl-xL, 2 nM Flu-BAK probe; read-out: Inhibitory activity IC50 Bcl-xL.
Bcl-xL, sequence (Q07817 whole entry): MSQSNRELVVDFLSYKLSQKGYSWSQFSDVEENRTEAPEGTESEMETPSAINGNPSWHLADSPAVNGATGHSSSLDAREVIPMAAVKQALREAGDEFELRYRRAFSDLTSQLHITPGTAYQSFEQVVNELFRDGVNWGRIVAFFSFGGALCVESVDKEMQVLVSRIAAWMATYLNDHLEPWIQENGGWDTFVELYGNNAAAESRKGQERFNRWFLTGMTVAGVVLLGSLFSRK
Another data set deals with Mcl-1 (Homo sapiens (Human), UniProt Q07820). The data set is described as follows: FP saturation binding of fluorescent probe to Mcl-1. To be noted: 2 nM probe.
Mcl-1, sequence (Q07820 whole entry): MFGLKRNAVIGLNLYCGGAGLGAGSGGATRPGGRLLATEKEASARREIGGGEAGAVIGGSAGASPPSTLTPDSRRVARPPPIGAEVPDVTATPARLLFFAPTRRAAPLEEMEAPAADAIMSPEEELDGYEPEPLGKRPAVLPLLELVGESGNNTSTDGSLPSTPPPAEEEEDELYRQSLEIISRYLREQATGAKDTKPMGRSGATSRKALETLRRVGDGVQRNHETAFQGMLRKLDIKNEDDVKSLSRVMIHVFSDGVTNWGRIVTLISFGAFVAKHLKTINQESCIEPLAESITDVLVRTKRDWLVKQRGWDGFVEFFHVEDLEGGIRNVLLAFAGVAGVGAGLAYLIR
The next data set in a line: Pharmacokinetics in rats. It counts as in vivo. As for the experimental part: The pharmacokinetics of ABT-199 and representative Compounds of the Disclosure were evaluated in rats at an IV dose of 2 mg/kg and an oral dose of 20 mg/kg.

Where two headings read alike, the source gives them in different places.

Protocol for Bcl-2: (§1) Fluorescence polarization values were measured using the Infinite M-1000 plate reader (Tecan U.S., Research Triangle Park, N.C.) in Microfluor 1 96-well, black, round-bottom plates (Thermo Scientific). […] Plates were mixed and incubated at room temperature for 1 hour with gentle shaking to assure equilibrium. […] Equilibrium dissociation constants (Kd) were then calculated by fitting the sigmoidal dose-dependent FP increases as a function of protein concentrations using Graphpad Prism 5.0 software (Graphpad Software, San Diego, Calif.).
(§2) Mixtures of 5 μl of the tested inhibitors in DMSO and 120 μl of pre-incubated protein/probe complexes in the assay buffer were added into assay plates and incubated at room temperature for 2 hours with gentle shaking. […] FP values were measured as described above. IC50 values were determined by nonlinear regression fitting of the competition curves.
Protocol for Bcl-xL: as §1, §2
Protocol for Mcl-1: as §1
Protocol for Molm13 cells: Molm13 cells were obtained from Deutsche Sammlung von Mikroorganismen und Zellkulturen GmbH (DSMZ). They were used within three months of thawing fresh vials. Cells were maintained in the recommended culture medium with 10% FBS at 37° C. and an atmosphere of 5% CO2.
200 μL of a Molm13 cell suspension (10000 cells/well) in culture medium were seeded into 96-well plates and cultured overnight. Each tested compound was serially diluted in culture medium, and 20 μL of the compound dilution was added to the corresponding well of the cell plate. After the addition of the tested compound, the cells were incubated at 37° C. in an atmosphere of 5% CO2 for 4 days. […] The plates were read at 450 nm on the microplate spectrophotometer (Epoch2, BioTek). The readings were normalized to the vehicle cells, and the IC50 was calculated by nonlinear regression analysis using GraphPad Prism 5 software.

Consider `O=C(NS(=O)(=O)c1cc([N+](=O)[O-])c2[nH]c(C3CC3)nc2c1)c1ccc(N2CCN(CC3=C(c4ccc(Cl)cc4)CC4(CCC4)CC3)CC2)cc1Oc1cnc2[nH]ccc2c1` [compound 59, 2-((1H-pyrrolo[2,3-b]pyridin-5-yl)oxy)-4-(4-((6-(4-chlorophenyl)spiro[3.5]non-6-en-7-yl)methyl)piperazin-1-yl)-N-((2-cyclopropyl-7-nitro-1H-benzo[d]imidazol-5-yl)sulfonyl)benzamide], for which the half-inhibitory concentration (IC50) in the data set on RS4;11 cells was 65 nM; in the data set on Molm13 cells, 468 nM; against Bcl-2 it was 5 nM; on Bcl-xL, 20.7 nM.
Regarding “Flu-BID: Fluorescein labeled BID (79-99) peptide, fluorescent probe in FP assay for Mcl-1”, the Kd with Mcl-1 amounted to 6.9 ± 0.9 nM.
`O=C(NS(=O)(=O)c1ccc(NC[C@@H]2COCCO2)c([N+](=O)[O-])c1)c1ccc(C2=CCN(CC3=C(c4ccc(Cl)cc4)CC4(CCC4)CC3)CC2)cc1Oc1cnc2[nH]ccc2c1` [compound 1, (R)-N-((4-(((1,4-dioxan-2-yl)methyl)amino)-3-nitrophenyl)sulfonyl)-2-((1H-pyrrolo[2,3-b]pyridin-5-yl)oxy)-4-(1-((6-(4-chlorophenyl)spiro[3.5]non-6-en-7-yl)methyl)-1,2,3,6-tetrahydropyridin-4-yl)benzamide]: the half-maximal inhibitory concentration (IC50) in the data set with RS4;11 cells was determined as 3 nM; in the data set on Molm13 cells, 47 nM.
As to `CC(C)c1nc2cc(S(=O)(=O)NC(=O)c3ccc(N4CCN(CC5=C(c6ccc(Cl)cc6)CC6(CCC6)CC5)CC4)cc3Oc3cnc4[nH]ccc4c3)cc([N+](=O)[O-])c2[nH]1` [compound 58, 2-((1H-pyrrolo[2,3-b]pyridin-5-yl)oxy)-4-(4-((6-(4-chlorophenyl)spiro[3.5]non-6-en-7-yl)methyl)piperazin-1-yl)-N-((2-isopropyl-7-nitro-1H-benzo[d]imidazol-5-yl)sulfonyl)benzamide], the IC50 in the data set with RS4;11 cells worked out at 35 nM; in the data set on Molm13 cells, 250 nM; on Bcl-2, 3.8 nM; at Bcl-xL, 19.2 nM.
As to `O=C(NS(=O)(=O)c1ccc(NCC2CCOCC2)c([N+](=O)[O-])c1)c1ccc(N2CCN(CC3=C(c4ccc(Cl)cc4)CC4(CC3)COC4)CC2)cc1Oc1cnc2[nH]ccc2c1` [Cpd. No. 2, 2-((1H-pyrrolo[2,3-b]pyridin-5-yl)oxy)-4-(4-((6-(4-chlorophenyl)-2-oxaspiro[3.5]non-6-en-7-yl)methyl)piperazin-1-yl)-N-((3-nitro-4-(((tetrahydro-2H-pyran-4-yl)methyl)amino)phenyl)sulfonyl)benzamide], the half-inhibitory concentration (IC50) in the data set on RS4;11 cells amounted to 5.5 nM; in the data set on Molm13 cells it was 85 nM; on Bcl-2, 0.76 nM; on Bcl-xL, 10.6 nM.
For the compound `CN(C)c1ccc(S(=O)(=O)NC(=O)c2ccc(N3CCN(CC4=C(c5ccc(Cl)cc5)CC5(CCC5)CC4)CC3)cc2Oc2cnc3[nH]ccc3c2)cc1[N+](=O)[O-]` [compound 11, 2-((1H-pyrrolo[2,3-b]pyridin-5-yl)oxy)-4-(4-((6-(4-chlorophenyl)spiro[3.5]non-6-en-7-yl)methyl)piperazin-1-yl)-N-((4-(dimethylamino)-3-nitrophenyl)sulfonyl)benzamide], the half-maximal inhibitory concentration (IC50) was 61 nM with RS4;11 cells, 1020 nM in the data set with Molm13 cells, 11.9 nM on Bcl-2 and 77.8 nM at Bcl-xL.
`O=C(NS(=O)(=O)c1ccc(NCC2CCOCC2)c([N+](=O)[O-])c1)c1ccc(N2CCN(CC3=C(c4ccc(Cl)cc4)CC4(CCC4)CC3)CC2)cc1Oc1cnc2[nH]ccc2c1` [Cpd. No. 3, 2-((1H-pyrrolo[2,3-b]pyridin-5-yl)oxy)-4-(4-((6-(4-chlorophenyl)spiro[3.5]non-6-en-7-yl)methyl)piperazin-1-yl)-N-((3-nitro-4-(((tetrahydro-2H-pyran-4-yl)methyl)amino)phenyl)sulfonyl)benzamide]: the “AUC0-∞ IV” value in the data set “Pharmacokinetics in rats” (IV 2 mg/kg) is on record as 2683 n · gh/mL. In addition, in the data set “Pharmacokinetics in rats” (oral 20 mg/kg), the “AUC0-∞ PO” value was 7775 n · gh/mL. For the same compound, in the data set “Pharmacokinetics in rats” (oral 20 mg/kg vs IV 2 mg/kg), the “F(AUC0-t)” value amounted to 29.0%. The same compound gave an MRT inf in the data set “Pharmacokinetics in rats” (rat, in vivo, IV 2 mg/kg) of 2.37 h. The AUC(0-t) in “Pharmacokinetics in rats” (rat, in vivo, IV 2 mg/kg, read-out: AUC0-t IV) was 2660 ng·h/mL; in “Pharmacokinetics in rats” (rat, in vivo, oral 20 mg/kg, read-out: AUC0-t PO) it was 7630 ng·h/mL. The clearance in “Pharmacokinetics in rats” (rat, in vivo, IV 2 mg/kg, read-out: CL (iv) (converted)) is 12.8 mL/min/kg. For the same compound, the peak concentration (Cmax) in “Pharmacokinetics in rats” (rat, in vivo, IV 2 mg/kg, read-out: Cmax IV) turned out to be 4200 ng/mL; in the data set “Pharmacokinetics in rats” (rat, in vivo, oral 20 mg/kg, read-out: Cmax PO), 1320 ng/mL. The time of peak concentration (Tmax) stood at 0.083 h in “Pharmacokinetics in rats” (rat, in vivo, IV 2 mg/kg, read-out: Tmax IV) and 2 h in “Pharmacokinetics in rats” (rat, in vivo, oral 20 mg/kg, read-out: Tmax PO). In addition, the Vd in “Pharmacokinetics in rats” (rat, in vivo, IV 2 mg/kg, read-out: Vss (iv)) was 1.86 L/kg. Besides, the half-life was 296 min in “Pharmacokinetics in rats” (rat, in vivo, IV 2 mg/kg, read-out: t1/2 IV (converted)) and 268 min in “Pharmacokinetics in rats” (rat, in vivo, oral 20 mg/kg, read-out: t1/2 PO (converted)). Besides, the IC50 amounted to 26 nM in the data set on RS4;11 cells, 1.2 nM against Bcl-2 and 13.7 nM at Bcl-xL.
Turning to `CNc1ccc(S(=O)(=O)NC(=O)c2ccc(N3CCN(CC4=C(c5ccc(Cl)cc5)CC5(CCC5)CC4)CC3)cc2Oc2cnc3[nH]ccc3c2)cc1[N+](=O)[O-]` [compound 10, 2-((1H-pyrrolo[2,3-b]pyridin-5-yl)oxy)-4-(4-((6-(4-chlorophenyl)spiro[3.5]non-6-en-7-yl)methyl)piperazin-1-yl)-N-((4-(methylamino)-3-nitrophenyl)sulfonyl)benzamide], the IC50 in the data set on RS4;11 cells turned out to be 32 nM; in the data set with Molm13 cells, 182 nM; at Bcl-2, 3.3 nM; on Bcl-xL, 14 nM.
With `O=C(NS(=O)(=O)c1ccc(NCC2CCOCC2)c([N+](=O)[O-])c1)c1ccc(C2CCN(CC3=C(c4ccc(Cl)cc4)CC4(CCC4)CC3)CC2)cc1Oc1cnc2[nH]ccc2c1` [compound 12, 2-((1H-pyrrolo[2,3-b]pyridin-5-yl)oxy)-4-(1-((6-(4-chlorophenyl)spiro[3.5]non-6-en-7-yl)methyl)piperidin-4-yl)-N-((3-nitro-4-(((tetrahydro-2H-pyran-4-yl)methyl)amino)phenyl)sulfonyl)benzamide], the IC50 is 78 nM in the data set with RS4;11 cells, 253 nM in the data set on Molm13 cells and 4.4 nM at Bcl-2.
As for `O=C(NS(=O)(=O)c1cc([N+](=O)[O-])c2cn(CC3CCOCC3)nc2c1)c1ccc(N2CCN(CC3=C(c4ccc(Cl)cc4)CC4(CCC4)CC3)CC2)cc1Oc1cnc2[nH]ccc2c1` [compound 63, 2-((1H-pyrrolo[2,3-b]pyridin-5-yl)oxy)-4-(4-((6-(4-chlorophenyl)spiro[3.5]non-6-en-7-yl)methyl)piperazin-1-yl)-N-((4-nitro-2-((tetrahydro-2H-pyran-4-yl)methyl)-2H-indazol-6-yl)sulfonyl)benzamide], the IC50 with RS4;11 cells is 55 nM; against Bcl-2 it was 1.3 nM; on Bcl-xL, 7.1 nM.
As to `O=C(NS(=O)(=O)c1cc([N+](=O)[O-])c2cn(C3CCOCC3)nc2c1)c1ccc(N2CCN(CC3=C(c4ccc(Cl)cc4)CC4(CCC4)CC3)CC2)cc1Oc1cnc2[nH]ccc2c1` [compound 65, 2-((1H-pyrrolo[2,3-b]pyridin-5-yl)oxy)-4-(4-((6-(4-chlorophenyl)spiro[3.5]non-6-en-7-yl)methyl)piperazin-1-yl)-N-((4-nitro-2-(tetrahydro-2H-pyran-4-yl)-2H-indazol-6-yl)sulfonyl)benzamide], the figures for the IC50 in the data set with RS4;11 cells, at Bcl-2 and at Bcl-xL were 11 nM, 1.4 nM and 9.9 nM, respectively.

Broadly, the IC50 is the concentration at which inhibition is half-maximal. One may read the Kd as the free concentration of one partner at which half of the binding sites on the other are occupied at equilibrium, for simple one-to-one binding. Read a high Kd as weaker binding. One may read the MRT inf as a mean duration of stay, worked out from the concentration-time curve. As usually defined, the Cmax is the peak of the concentration-time curve. The term Tmax denotes the time at which the peak concentration occurs.
